Assay results published in patent US8987198B2, “Compositions and methods for treating obesity and diabetes” (The Administrators of the Tulane Educational Fund, priority 2009, dated 2015).

Legend:
[1] = test system: 3T3-L1 differentiated adipocytes; test: [3H]2-deoxyglucose uptake assay in 3T3-L1 adipocytes; assay type: cell-based, murine; settings: for glucose uptake after addition of insulin: 0.3 nM insulin + glyceollin; for glucose uptake after addition of insulin / glucose uptake in the absence of insulin: FIG. 17; for glucose uptake in the absence of insulin: 24 h KRH, then 30 min exposure; for insulin-mediated glucose uptake after pre-incubation with glyceollins: 24 hours pre-incubation, 30 min insulin, FIG. 15
Method: Krebs-Ringers-Hepes (KRH) buffer was prepared with 200 mL H2O, 300 μL of 1 M CaCl2, 300 μL of 1.2 M MgSO4, 300 μL of 1 M KH2PO4, 3 mL of 0.14 M KCl, 6 mL of 1 M HEPES in 1.2 M NaHCO3, and 15 mL of 2.6 M NaCl. […] Insulin (MW=5808) stock solution (100 μM) was prepared by dissolving 2.90 mg insulin into 5 mL of 0.01 N HCl. To make working solutions: the stock solution was diluted 1:10 by adding 100 μL stock to 900 μL KRH buffer, giving solution A (10 μM); solution A was diluted by adding 400 μL of solution A to 932 μL KRH buffer, giving solution B (3 μM); solution A was diluted by adding 100 μL of solution A to 900 μL KRH buffer, giving solution C (1 μM); solution B was diluted by adding 100 μL of solution B to 900 μL KRH buffer, giving solution D (300 nM); solution C was diluted by adding 100 μL of solution C to 900 μL KRH buffer, giving solution E (100 nM); solution D was diluted by adding 100 μL of solution D to 900 μL KRH buffer, giving solution F (30 nM); solution E was diluted by adding 100 μL of solution E to 900 μL KRH buffer, giving solution G (10 nM); solution F was diluted by adding 100 μL of solution F to 900 μL KRH buffer, giving solution H (3 nM); solution G was diluted by adding 100 μL of solution G to 900 μL KRH buffer, giving solution I (1 nM); and solution H was diluted by adding 100 μL of solution H to 900 μL KRH buffer, giving solution J (0.3 nM). 100 μL of each concentration was added to each well with a final volume in each well of 1000 μL (1:10 dilution when added to cells). […] This stock solution was kept refrigerated. To make working solutions: 80 μL of the stock solution was diluted with 3920 μL KRH buffer, giving solution A (200 μM); solution A was diluted by adding 500 μL of solution A to 335 μL KRH buffer, giving solution B (120 μM); solution A was diluted by adding 1000 μL of solution A to 1000 μL KRH buffer, giving solution C (100 μM); solution A was diluted by adding 1000 μL of solution A to 1500 μL KRH buffer, giving solution D (80 μM); solution A was diluted by adding 1000 μL of solution A to 2330 μL KRH buffer, giving solution E (60 μM); solution D was diluted by adding 1000 μL of solution D to 1000 μL KRH buffer, giving solution F (40 μM); solution F was diluted by adding 1000 μL of solution F to 1000 μL KRH buffer, giving solution G (20 μM); solution G was diluted by adding 1000 μL of solution G to 1000 μL KRH buffer, giving solution H (10 μM); and solution H was diluted by adding 1000 μL of solution H to 1000 μL KRH buffer, giving solution I (5 μM). 100 μL of each concentration was added to each well with a final volume in each well of 1000 μL (1:10 dilution when added to cells). Unless indicated otherwise (see, e.g., EXAMPLES 14 & 15), where the EXAMPLES below refer to glyceollin, a mixture of glyceollins I, II, and III, was used. Cell culture and differentiation of murine 3T3-L1 cells is a well-accepted model for study of adipocyte differentiation, glucose uptake, and insulin action. These cells undergo a program of differentiation manifest by large lipid droplet accumulation when stimulated by the appropriate hormonal cocktail. The adipocytes express markers such as leptin and adiponectin, express Glut 4, and respond to insulin stimulation by increasing glucose uptake, similar to primary adipocytes. For these experiments, frozen preadipocytes were purchased from Zenbio (Research Triangle Park, N.C.). They were thawed at 37° C., diluted with Zenbio Preadipocyte medium, and incubated in 24-well plates at 37° C. in a humidified atmosphere containing 95% air and 5% CO2 until confluent. Signals derived from confluency were allowed by incubating for 2 more days. Preadipocyte medium was replaced with Zenbio Differentiation Medium and the cells were incubated for 3 additional days; that medium was replaced with Zenbio Adipocyte […] medium for about 2 weeks when greater than 95% of the cells appeared filled with large lipid droplets. […]

[2] = test system: Liver X Receptor in LNCaP Cells; test: Up-regulation of LXR-responsive genes ABCG1/ABCA1 in LNCaP cells; assay type: cell-based; settings: glyceollin at 5 μM for 48 h
Method: LNCaP cells were obtained from the American Type Culture Collection (Manassas, Va.) and maintained in Media A [RPMI 1640 medium with phenol red (Invitrogen, Carlsbad, Calif.), 2 mM L-glutamine (Sigma), 100 U/mL penicillin and 100 μg/mL streptomycin (BioSource International, Camarillo, Calif.) with 10% fetal bovine serum (FBS) (Invitrogen, Carlsbad, Calif.)]. Cells were incubated in the presence of 5% CO2 in air at 37° C.

Compound	glucose uptake after addition of insulin [1]	glucose uptake in the absence of insulin [1]	insulin-mediated glucose uptake after pre-incubation with glyceollins [1]	also measured
insulin [reference compound]				glucose uptake by insulin alone ([1]; 0.2 nM insulin, FIG. 19 column 2): stimulation of glucose uptake
O=c1c(-c2ccc(O)cc2)coc2cc(O)cc(O)c12 [Genistein, genistein]				fold up-regulation of ABCG1 [2]: 3 fold
CC1(C)C=Cc2c(ccc3c2OC[C@@]2(O)c4ccc(O)cc4O[C@@H]32)O1 [glyceollin I]	further enhanced	can stimulate glucose uptake in the absence of insulin	more effective than glyceollin II	glucose uptake after 30 minute exposure ([1]; 5 μM, cells pre-incubated 24 h with KRH, FIG. 16): stimulate glucose uptake better than glyceollins II and III
C=C(C)[C@@H]1Cc2cc3c(cc2O1)OC[C@@]1(O)c2ccc(O)cc2O[C@@H]31 [glyceollin III]	further enhanced	can stimulate glucose uptake in the absence of insulin	more effective than glyceollin II	
Oc1ccc2c(c1)OC[C@@]1(O)c3ccc(O)cc3O[C@@H]21 [glycinol, reference compound]				glucose uptake after 30 minute exposure to glycinol ([1]; 1 μM and 0.1 μM, absence of insulin, FIG. 16 columns 7 and 8): does not present the same bioactivity as glyceollin; glucose uptake with glycinol ([1]; 5 μM glycinol, 24 h pre-incubation, with or without insulin, FIG. 14): ineffective at stimulating glucose uptake
